This is an account of results in patent publication US20230398130A1, “METHODS AND COMPOSITIONS FOR DIFFERENTIATING STEM CELLS” (Massachusetts Institute of Technology, priority 2020, published 2023).

Assay [1] has as its system ISC-enriched organoids. The assay can be described thus: Secondary (validation) screen, 384-well 2.5-D, ENR+CD 6 days, n=8 wells, vs ENR+CD+DMSO control: ATP (CTG). In kind it is cell-based, murine.
Assay [2] has as its system ISC-enriched organoids. Kind of assay: Secondary (validation) screen, 384-well 2.5-D, ENR+CD 6 days, n=8 wells, vs ENR+CD+DMSO control: basal lysozyme secretion (LYZ.NS). The assay is classed as cell-based, murine.
In assay [3] the test system is ISC-enriched organoids. The assay can be described thus: Secondary (validation) screen, 384-well 2.5-D, ENR+CD 6 days, n=8 wells, vs ENR+CD+DMSO control: carbachol-induced lysozyme secretion (LYZ.S). The assay is classed as cell-based, murine.
For assay [4], the system named is Paneth cells. The assay can be described thus: Flow cytometry of 3D-cultured intestinal organoids (ENR+CD, 6 days): Paneth cell fraction (lysozyme-positive, CD24-mid). In kind it is cell-based, murine. To be noted: ENR+CD 6 days, 3-D culture. As for the experimental part: Flow cytometry analysis (3D culture). ISC-enriched organoids cultured in 3D Matrigel with ENRCV media were passaged to 24-well plate in 3D Matrigel with ENRCV. At day zero, media were replaced to ENRCD with or without indicated compounds, and media were replaced every other day. […] Flow cytometry was performed using an LSR Fortessa (BD; Koch Institute Flow Cytometry Core at MIT). The data were analyzed using FlowJo v10 software.
Single live cells were selected by several gating strategies and Paneth cells were identified as lysozyme-high, CD24-mid, side scatter-high (SSC-high) (FIG. 27E). […] To evaluate whether the culture media supplements C and D may alter the effects of the 6 hits, Applicants also performed lysozyme assay in the canonical ENR culture condition in 3-D (because Paneth cells exist in an immature state within ENR, Applicants were unable to robustly quantify Paneth cell number via flow cytometry).
(§1) Flow cytometry. ISC-enriched organoids in 3D Matrigel culture were passaged to a 48-well plate and induced differentiation for 6 days by ENR+CD media containing DMSO or each drug indicated in the figures. DMSO- or drug-containing media were changed every other day. […] After vigorous pipetting and incubation at 37° C. for 15 min, the cell solution was diluted twice with basal media and centrifuged at 300 rcf for 3 min. […] The cell solution was centrifuged again at 300 rcf for 3 min at 4° C. to pellet the cells. […] Cells were centrifuged again for 3 min at 300 rcf and blocked with staining buffer (FACS buffer containing 0.5% Tween20 (Sigma, P2287)) for 15 min at RT in the dark. […] Flow cytometry was performed using an LSR Fortessa (BD; Koch Institute Flow Cytometry Core at MIT). Flow cytometry data were analyzed using FlowJo X v10.6.1 software.
Live Paneth cells were identified as LYZ-high, CD24-mid, side scatter-high (SSC-high) (FIG. 50F).
as §1, with “organoids in 3-D Matrigel culture” for “organoids in 3D Matrigel culture”, “to a 24- or 48-well plate” for “to a 48-well plate”

Assay [5] deals with ISC-enriched organoids. Kind of assay: Primary screen, 384-well 2.5-D organoid differentiation (ENR+CD, 6 days, Target Selective Inhibitor Library, vs whole-plate median): ATP (CellTiter-Glo 3D, CTG). The settings on record: standard z score of FC. Background: Cellular ATP, detected with luciferase, serves as a proxy for viable cell number.
For assay [6], the system named is ISC-enriched organoids. Kind of assay: Primary screen, 384-well 2.5-D organoid differentiation (ENR+CD, 6 days): basal lysozyme secretion (LYZ.NS). The assay is classed as cell-based, murine. The settings on record: SSMD in LYZ.NS and LYZ.S assays. The source says: High-throughput screening.
Assay [7] deals with ISC-enriched organoids. The assay can be described thus: Lysozyme secretion assay, 3-D organoids in ENR+CD, normalized to ATP. In kind it is cell-based, murine. To be noted: for Paneth cell differentiation (functional LYZ secretion), compound alone: 6-day ENR+CD differentiation, 10 μM SR11302, 20 nM Cobimetinib, others over a dose range; for Paneth cell differentiation (functional LYZ secretion), in combination with KPT-330: 6-day ENR+CD differentiation with 160 nM KPT-330. As to the method: Lysozyme assay (3D culture). ISC-enriched organoids cultured in 3D Matrigel with ENRCV media were passaged to 48-well plate in 3D Matrigel with ENRCV. At day zero, media were replaced to ENR or ENRCD with or without indicated compounds, and media were replaced every other day. At day six, cells were washed twice with basal media and treated with carbamylcholine chloride (Sigma, C4382) for 3 hours. Media were collected and lysozyme activity was measured by EnzChek Lysozyme Assay Kit (ThermoFisher, E22013).
(§2) Lysozyme secretion assay. ISC-enriched organoids in 3D Matrigel culture were passaged to a 48- or 96-well plate and cultured with ENR or ENR+CD media containing DMSO or each drug for 6 days. DMSO- or drug-containing media were changed every other day. On day 6, cells were washed with basal media twice and treated with basal media with or without 10 μM carbamoylcholine chloride for 3 h in a CO2 incubator at 37° C. A part of the conditioned media was collected and used for lysozyme assay (Thermo, E-22013) following the manufacturer's instruction. The fluorescence was measured using excitation/emission of 485/530 nm. CellTiter-Glo 3D Reagent (Promega, G9681) was added afterward, and the cell culture plate was incubated on an orbital shaker at RT for 30 min to induce cell lysis and to stabilize the luminescent signal. The solution was replaced to a 96-well white microplate, and luminescent signals were measured by a microplate reader (infinite M200, Tecan). The standard curve was prepared by diluting recombinant ATP (Promega, P1132). For both assays, a polynomial cubic curve was fitted to a set of standard data, and each sample value was calculated on the Microsoft Excel.
as §2, with “in 3-D” for “in 3D”, “μM carbachol” for “μM carbamoylcholine chloride”, “3 hours” for “3 h”, “C. Conditioned” for “C. A part of the conditioned”, “nm. CTG” for “nm. CellTiter-Glo”, “Reagent” for “Reagent (Promega, G9681)”

The subject of assay [8] is ISC-enriched organoid cultures. In kind it is cell-based. As to the method: Using the ISC-enriched organoid cultures, Applicants sought to assess the role of vitamin D's multiple metabolites on ISC proliferation and differentiation in vitro. Treatment of ISC-enriched organoid cultures with multiple vitamin D metabolites at 50 nM drives a reduction in cell number after 4 days of exposure (FIG. 45A). This reduction is attributed to reduced ISC self-renewal and differentiation to terminal epithelial cell types. To confirm increased differentiation of ISC-enriched organoids, mRNA markers of epithelial cells were assessed via quantitative PCR (FIG. 45B). […] By enhancing ISC differentiation, Applicants hypothesized that it may be possible to enhance barrier repair or integrity in IBD. Such effect could act synergistically with other known effects of vitamin D, and provide enhanced therapeutic benefit.
After observing that calcitriol, the primary active vitamin D metabolite, drove the most profound differentiation effect on in vitro ISC cultures, Applicants sought to investigate whether or not this effect is dose-dependent. Again, Applicants used the ISC-enriched organoid culture, and exposed varying concentrations of calcitriol for 4-day treatment periods.
Given that WNT signaling is central to ISC self-renewal and maintenance, Applicants investigated the role of calcitriol on ISC proliferation and WNT signal activity.

Setting [9] is: calcitriol 1 nM to 100 nM, 4-day treatment.

The structures appear in SMILES notation. “Also recorded” adds a separate entry of the source. Where two headings read alike, the source gives them in different places.

With `Cc1cn(-c2cc(NC(=O)c3ccc(C)c(Nc4nccc(-c5cccnc5)n4)c3)cc(C(F)(F)F)c2)cn1` [Nilotinib (AMN-107), Nilotinib], the Z.CTG in assay [1] (Dose 0.10 uM) is 0.830; in assay [1] (Dose 0.20 uM), 1.098; in assay [1] (Dose 0.80 uM) it was 2.104; in assay [1] (dose 0.40 uM), 1.275; in assay [5] (Dose 0.08 uM) it was 0.769; in assay [5] (Dose 0.40 uM) it was 0.831. Also, the figures for the Z.CTG in assay [5] (Dose 2.00 uM) and in assay [5] (Dose 10.00 uM) were 0.577 and −0.029, respectively. The repSSMD.CTG in assay [1] (Dose 0.10 uM) is on record as 0.571; in assay [1] (Dose 0.20 uM), 0.777; in assay [1] (Dose 0.80 uM), 1.535; in assay [1] (dose 0.40 uM), 0.902. The Z.LYZ.NS is 0.734 in assay [2] (Dose 0.10 uM), 1.283 in assay [2] (Dose 0.20 uM), 1.317 in assay [2] (Dose 0.80 uM) and 0.805 in assay [2] (dose 0.40 uM). For the same compound, the repSSMD.LYZ.NS in assay [2] (Dose 0.10 uM) came out at 1.309; in assay [2] (Dose 0.20 uM) it was 1.683; in assay [2] (Dose 0.80 uM) it was 1.063; in assay [2] (dose 0.40 uM), 1.064. Moreover, the Z.LYZ.S was 0.339 in assay [3] (Dose 0.10 uM), 0.897 in assay [3] (Dose 0.20 uM), 1.099 in assay [3] (Dose 0.80 uM) and −0.053 in assay [3] (dose 0.40 uM). Moreover, the repSSMD.LYZ.S in assay [3] (Dose 0.10 uM) is on record as 0.652; in assay [3] (Dose 0.20 uM), 1.324; in assay [3] (Dose 0.80 uM), 0.953; in assay [3] (dose 0.40 uM) it was −0.055. Also, the “mature Paneth cell population within organoids” value in assay [4] (hit compound at most potent dose from 2.5-D screening, vs control) is “significantly decreased Paneth abundance”. Moreover, the total cell number entry in assay [4] (hit compound at most potent dose) is given as “significantly increasing total cell number”.
On to `COc1cc2c(Nc3ccc(NC(=O)c4ccccc4)cc3)ncnc2cc1OCCCN1CCOCC1` [ZM447439, reference compound], for which the “primary screen hit call” value in assay [6] is recorded as “lower-effect size hit”. For the same compound, the “Paneth cell differentiation (functional LYZ secretion), compound alone” value (from here on “Paneth cell differentiation … compound alone”) in assay [7] is “did significantly increase Paneth cell differentiation”.
Turning to `C=C1/C(=C\C=C2/CCC[C@]3(C)[C@@H]([C@H](C)CCCC(C)(C)O)CC[C@@H]23)C[C@@H](O)C[C@@H]1O` [calcitriol, 1α,25-dihydroxyvitamin D3], the “ISC differentiation (mRNA markers of epithelial cells)” value in assay [8] (50 nM, 4 days, vs control culture) is “having the most profound effect”. The cell number entry in assay [8] (setting [9]) is given as “a decrease in cell number”. In addition, the “markers of intestinal epithelial cells (mRNA), ISC differentiation” value is “an increase in markers of intestinal epithelial cells in a dose-dependent manner” in assay [8] (setting [9]) and “dose-dependent differentiation effect, primarily to goblet cells” in assay [8] (calcitriol 1 nM to 100 nM, 4-day treatment, listed as Calcitriol). Besides, in assay [8] (calcitriol, 4 days), the cell cycle markers result is reported as “a weak connection to cell cycle inhibition”. In assay [8] (calcitriol, 4 days, all doses), the “proliferation (Ki67)” value is given as “minimal change in proliferation at all doses”. Besides, the LGR5 expression entry in assay [8] (increasing calcitriol dosage, 4 days) is “a clear reduction in LGR5”.
Turning to `Cc1ccc(C(=O)Cn2c3c(sc2=N)CCCC3)cc1` [pifithrin-a], in assay [7], the “Paneth cell differentiation (functional LYZ secretion), in combination with KPT-330” value is “neither P53 inhibitor altered Paneth cell differentiation; also recorded: did not alter Paneth cell differentiation” and the “Paneth cell differentiation … compound alone” value is on record as “neither P53 inhibitor altered Paneth cell differentiation; also recorded: did not alter Paneth cell differentiation”.
On to `c1ccc2c(CCNc3ccc(Nc4ccncc4)cc3)c[nH]c2c1` [serdemetan], for which, in assay [7], the “Paneth cell differentiation (functional LYZ secretion), in combination with KPT-330” value is reported as “neither P53 inhibitor altered Paneth cell differentiation; also recorded: did not alter Paneth cell differentiation” and the “Paneth cell differentiation … compound alone” value is “neither P53 inhibitor altered Paneth cell differentiation; also recorded: did not alter Paneth cell differentiation”.
